According to patent publication US20240051968A1, “METHODS FOR TREATING SPINOCEREBELLAR ATAXIA TYPE 3” (PTC Therapeutics, Inc., priority 2021, published 2024):

How the values were obtained:
ATXN3 pre-mRNA = experiment: RT-qPCR Assay to Quantify Exon 4 Skipping in ATXN3 pre-mRNA in Cells; format: cell-based; conditions: cells incubated with compound 24 h, 7-point concentration curve, GAPDH control
In short: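 Cells (10,000/well) treated 24 h at 37° C with 7-point, 3.16-fold compound dilutions in duplicate against DMSO controls. Lysates analysed by one-step RT-qPCR (40 cycles) for ATXN3 exon 4 skipping; percent skipping per dose fitted to dose-response to interpolate IC50.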

[1] = tested on: Total ATXN3 (tATXN3) protein; experiment: Endogenous Total ATXN3 (tATXN3) Protein Assay (MSD immunoassay of cell lysates); format: cell-based; conditions: cells incubated with compound 48 h; 7-point concentration curve; MSD detection in cell lysate
In short: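 Cells were plated at 10,000 per well on a 7-point, 3.16-fold compound dilution series in duplicate, with DMSO controls, and incubated 48 h at 37 °C. Lysates were run in an MSD sandwich immunoassay: mouse anti-ATXN3 capture, rabbit anti-ATXN3 secondary and SULFO-TAG anti-rabbit detection, read by electrochemiluminescence.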

Row | IC50 (ATXN3 pre-mRNA) [nM] | IC50 [1] [nM] | IC50, exon 4 skipping in ATXN3 pre-mRNA (ATXN3 pre-mRNA) | IC50 (average), total ATXN3 protein [1] | SMILES
1 | ≤ 500 | ≤ 500 | – | – | C[C@H](N)C(F)c1sc2c(NCc3cccs3)cc(Cl)nc2c1Br (stereo partly drawn) [Cpd 158, 2-[(2S)-2-amino-1-fluoropropyl]-3-bromo-5-chloro-N-[(thiophen-2-yl)methyl]thieno[3,2-b]pyridin-7-amine]
2 | – | – | inactive | inactive | C[C@H](N)C(O)c1sc2c(NCc3nccs3)cc(Cl)nc2c1Br (stereo partly drawn) [Cpd 159, (2S)-2-amino-1-(3-bromo-5-chloro-7-{[(1,3-thiazol-2-yl)methyl]amino}thieno[3,2-b]pyridin-2-yl)propan-1-ol]
3 | ≤ 500 | 500 to 1000 | – | – | C[C@H](N)C(F)c1sc2c(NCc3nccs3)cc(Cl)nc2c1Br (stereo partly drawn) [Cpd 161, 2-[(2S)-2-amino-1-fluoropropyl]-3-bromo-5-chloro-N-[(1,3-thiazol-2-yl)methyl]thieno[3,2-b]pyridin-7-amine]
4 | 500 to 1000 | 1000 to 1500 | – | – | Cc1c(NC[C@H](C)N)sc2c(NCc3cccs3)cc(Cl)nc12 [Cpd 163, N^2-[(2S)-2-aminopropyl]-5-chloro-3-methyl-N^7-[(thiophen-2-yl)methyl]thieno[3,2-b]pyridine-2,7-diamine]
5 | 2000 to 3000 | > 2000 | – | – | Cc1c(NC[C@@H](C)N)sc2c(NCc3cccs3)cc(Cl)nc12 [Cpd 164, N^2-[(2R)-2-aminopropyl]-5-chloro-3-methyl-N^7-[(thiophen-2-yl)methyl]thieno[3,2-b]pyridine-2,7-diamine]
6 | ≤ 500 | ≤ 500 | – | – | C[C@@H](O)[C@H](N)Cc1sc2c(NCc3ccco3)cc(Cl)nc2c1Br [Cpd 165, (2R,3R)-3-amino-4-(3-bromo-5-chloro-7-{[(furan-2-yl)methyl]amino}thieno[3,2-b]pyridin-2-yl)butan-2-ol]
7 | ≤ 500 | ≤ 500 | – | – | C#C[C@H](N)Cc1sc2c(NCc3ccco3)cc(Cl)nc2c1Cl [Cpd 166, 2-[(2R)-2-aminobut-3-yn-1-yl]-3,5-dichloro-N-[(furan-2-yl)methyl]thieno[3,2-b]pyridin-7-amine]
8 | ≤ 500 | ≤ 500 | – | – | C[S+]([O-])C[C@H](N)Cc1sc2c(NCc3ccco3)cc(Cl)nc2c1Cl (stereo partly drawn) [Cpd 167, [(2R)-2-amino-3-(3,5-dichloro-7-{[(furan-2-yl)methyl]amino}thieno[3,2-b]pyridin-2-yl)propyl](methyl)sulfaniumolate]
